The record followed here is ChEMBL document CHEMBL1201862, “PubChem BioAssay data set” (2004).

Assay [1] in a line: Luminescence Cell-Based Dose Response HTS to Identify Activators of Luciferase Translation or Activity in H4 […] Cells. [Related pubchem assays: 1829 (Project Summary), 1814 (Primary HTS)]. It counts as functional.
A further assay deals with H4. Description: Luminescence Cell-Based Dose Response HTS to Identify Activators of 5'UTR Stem-Loop Driven Prion Protein mRNA Translation in H4 Neuroglioblastoma Cells. [Related pubchem assays: 1829 (Project Summary), 1814 (Primary HTS)]. The settings on record: Homo sapiens. It counts as functional.
Assay [2] deals with T1, RNA-binding protein pos-1 (Caenorhabditis elegans, UniProt G5EF15).
T1 sequence (G5EF15 whole entry): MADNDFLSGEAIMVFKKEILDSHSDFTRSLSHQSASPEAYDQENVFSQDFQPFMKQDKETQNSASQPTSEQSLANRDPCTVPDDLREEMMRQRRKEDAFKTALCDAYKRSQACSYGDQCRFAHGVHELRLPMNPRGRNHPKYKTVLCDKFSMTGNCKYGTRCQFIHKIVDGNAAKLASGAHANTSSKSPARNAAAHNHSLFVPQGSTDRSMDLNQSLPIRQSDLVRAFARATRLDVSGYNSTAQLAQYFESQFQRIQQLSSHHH
Description: inhibitors of POS-1/mex-3 RNA binding, dose response, biochemical, fluorescence polarization (AID 1964).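 Note: purified POS-1 fused to maltose binding protein made in E. coli; potency of compounds blocking POS-1 binding to fluorescent RNA.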 Background: Polarisation of emitted light reports the rotation of a fluorescent probe.

In assay [3] the target is T2, Zinc finger protein mex-5 (Caenorhabditis elegans, UniProt Q9XUB2).
T2 sequence (Q9XUB2 whole entry): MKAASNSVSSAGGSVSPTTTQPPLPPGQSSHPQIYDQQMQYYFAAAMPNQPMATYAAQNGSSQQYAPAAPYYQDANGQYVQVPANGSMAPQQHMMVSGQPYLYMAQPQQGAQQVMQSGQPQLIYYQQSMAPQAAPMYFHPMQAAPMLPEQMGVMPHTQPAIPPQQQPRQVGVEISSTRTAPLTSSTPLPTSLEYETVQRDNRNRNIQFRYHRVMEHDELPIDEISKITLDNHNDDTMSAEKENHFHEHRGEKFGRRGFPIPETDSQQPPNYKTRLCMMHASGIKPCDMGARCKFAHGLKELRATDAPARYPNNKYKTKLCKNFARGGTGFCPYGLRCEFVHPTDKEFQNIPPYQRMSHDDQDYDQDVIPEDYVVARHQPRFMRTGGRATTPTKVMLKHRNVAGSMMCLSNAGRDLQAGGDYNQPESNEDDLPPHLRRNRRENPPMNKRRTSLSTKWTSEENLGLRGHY
Nature of the assay: MEX-5/TCR-2 RNA interaction inhibitors, dose response, biochemical, C. elegans, fluorescence polarization (AID 1960).

The target in a further assay is T3, Cytochrome P450 1A2 (Homo sapiens, UniProt P05177).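 Note: PubChem cytochrome P450 panel assay, CYP1A2 panel member.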
T3 sequence (P05177 whole entry): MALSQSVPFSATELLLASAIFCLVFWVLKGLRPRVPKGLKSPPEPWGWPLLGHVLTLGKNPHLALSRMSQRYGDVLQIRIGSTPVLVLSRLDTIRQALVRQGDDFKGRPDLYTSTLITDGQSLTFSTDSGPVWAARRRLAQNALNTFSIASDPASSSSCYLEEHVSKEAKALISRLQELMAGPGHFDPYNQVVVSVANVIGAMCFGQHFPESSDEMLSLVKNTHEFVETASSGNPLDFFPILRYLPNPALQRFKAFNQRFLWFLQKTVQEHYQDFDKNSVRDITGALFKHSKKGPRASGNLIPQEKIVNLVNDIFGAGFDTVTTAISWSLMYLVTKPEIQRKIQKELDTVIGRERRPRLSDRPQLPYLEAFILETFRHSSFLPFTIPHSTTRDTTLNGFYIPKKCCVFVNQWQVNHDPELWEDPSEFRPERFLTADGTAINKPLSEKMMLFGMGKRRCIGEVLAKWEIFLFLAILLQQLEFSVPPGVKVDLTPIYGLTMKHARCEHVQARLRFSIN

For assay [4], the target named is FAD-linked sulfhydryl oxidase ALR (Homo sapiens, UniProt P55789). Description: inhibitors of human ALR sulfhydryl oxidase, dose response, biochemical, H2O2 detection, luminescence, cherry-pick (AID 493248).
Chain of FAD-linked sulfhydryl oxidase ALR (P55789 whole entry): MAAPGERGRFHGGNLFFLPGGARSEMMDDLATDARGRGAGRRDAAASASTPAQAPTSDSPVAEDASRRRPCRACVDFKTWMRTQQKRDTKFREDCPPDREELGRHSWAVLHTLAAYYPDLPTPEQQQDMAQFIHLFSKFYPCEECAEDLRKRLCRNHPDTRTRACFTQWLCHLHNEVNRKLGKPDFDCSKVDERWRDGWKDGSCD
Assay [5] addresses T4, Rac GTPase-activating protein 1 (Homo sapiens, UniProt Q9H0H5).
T4 sequence (Q9H0H5 whole entry): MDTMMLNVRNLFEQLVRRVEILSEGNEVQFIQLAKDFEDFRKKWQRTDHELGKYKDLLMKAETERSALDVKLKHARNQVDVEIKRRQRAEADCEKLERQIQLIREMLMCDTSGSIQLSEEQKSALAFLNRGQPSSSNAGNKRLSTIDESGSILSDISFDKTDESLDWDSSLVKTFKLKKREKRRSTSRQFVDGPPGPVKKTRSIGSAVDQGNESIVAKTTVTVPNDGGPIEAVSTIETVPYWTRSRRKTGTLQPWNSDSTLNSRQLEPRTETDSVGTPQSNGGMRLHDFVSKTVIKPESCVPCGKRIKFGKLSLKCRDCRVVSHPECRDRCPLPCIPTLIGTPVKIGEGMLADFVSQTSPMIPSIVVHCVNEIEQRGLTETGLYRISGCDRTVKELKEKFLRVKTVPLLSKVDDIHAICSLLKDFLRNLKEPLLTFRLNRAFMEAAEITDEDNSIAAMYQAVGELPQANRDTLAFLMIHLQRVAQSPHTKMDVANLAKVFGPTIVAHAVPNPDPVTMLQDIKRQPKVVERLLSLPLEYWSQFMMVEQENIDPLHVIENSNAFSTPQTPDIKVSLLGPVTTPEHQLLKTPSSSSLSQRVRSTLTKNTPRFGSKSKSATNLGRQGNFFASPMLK
Description: MgcRacGAP GTPase-activating activity inhibitors, confirmation, biochemical, ADP Hunter fluorescence, primary and confirmatory (AID 624330). It counts as functional.

Another assay addresses Cytochrome P450 2C19 (Homo sapiens, UniProt P33261). Description: Cytochrome panel assay with activity outcomes. Panel member name: p450-cyp2c19 Compounds with AC50 equal or less than 10 uM are considered active. It counts as functional. The settings on record: read-out: AC50.
The next assay has as its target Cytochrome P450 2C9 (Homo sapiens, UniProt P11712).
The target of another assay is Cytochrome P450 2D6 (Homo sapiens, UniProt P10635).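 Note: CYP2D6 member of a cytochrome P450 panel assay.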
Chain of Cytochrome P450 2D6 (P10635 whole entry): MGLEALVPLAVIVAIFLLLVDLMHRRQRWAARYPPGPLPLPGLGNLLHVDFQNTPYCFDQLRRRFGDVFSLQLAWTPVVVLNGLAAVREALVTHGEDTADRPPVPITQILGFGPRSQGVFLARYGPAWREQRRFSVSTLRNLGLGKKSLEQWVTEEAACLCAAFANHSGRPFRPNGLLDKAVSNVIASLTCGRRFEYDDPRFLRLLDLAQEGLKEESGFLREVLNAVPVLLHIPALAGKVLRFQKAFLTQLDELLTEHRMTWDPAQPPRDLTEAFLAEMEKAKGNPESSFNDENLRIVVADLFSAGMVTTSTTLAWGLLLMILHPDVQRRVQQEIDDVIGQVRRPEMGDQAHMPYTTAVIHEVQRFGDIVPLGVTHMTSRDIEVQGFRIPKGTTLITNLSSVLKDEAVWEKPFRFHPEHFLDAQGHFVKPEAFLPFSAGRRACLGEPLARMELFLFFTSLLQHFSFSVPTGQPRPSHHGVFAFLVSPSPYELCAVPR
Assay [6] has as its system Streptococcus sp. 'group A'. Description: growth inhibition of control SK(-) GAS strain, dose response, counter-screen for streptokinase expression inhibitor project, luminescence, kanamycin, BacTiterGlo, confirmation (AID 1900). It counts as functional, organism-based. (In general: The purpose of a counterscreen is to sort out artefacts and off-target activity.)
For another assay, the target named is T5, Streptokinase A (Streptococcus pyogenes serotype M1, UniProt P10520).
T5 sequence (P10520 whole entry): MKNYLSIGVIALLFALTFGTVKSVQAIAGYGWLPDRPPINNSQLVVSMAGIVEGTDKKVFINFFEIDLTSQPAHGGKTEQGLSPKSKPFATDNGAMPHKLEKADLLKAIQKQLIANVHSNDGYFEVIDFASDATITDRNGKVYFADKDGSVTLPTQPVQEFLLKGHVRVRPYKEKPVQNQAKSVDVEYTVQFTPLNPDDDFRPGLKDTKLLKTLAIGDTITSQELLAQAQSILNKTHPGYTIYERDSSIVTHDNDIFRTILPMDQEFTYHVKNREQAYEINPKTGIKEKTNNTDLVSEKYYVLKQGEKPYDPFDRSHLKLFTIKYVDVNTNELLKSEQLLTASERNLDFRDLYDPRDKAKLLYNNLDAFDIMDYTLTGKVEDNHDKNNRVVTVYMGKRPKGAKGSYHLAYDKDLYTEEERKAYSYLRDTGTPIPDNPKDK
Nature of the assay: S. pyogenes streptokinase expression inhibitors, potency, dose response, plasminogen activation absorbance, OD405 (AID 1914).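 Note: secreted streptokinase activity via plasminogen activation per viability signal from cell pellet.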 It counts as functional, Streptococcus pyogenes M1 GAS.

Assay [7] in a line: inhibitors of intracellular T. cruzi replication, confirmation, NIH3T3 host cells, beta-gal luminescence (AID 2044).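 Note: intracellular parasites grown in NIH/3T3 mouse fibroblasts as host cells; luminescent beta-galactosidase reporter signal from transgenic T. cruzi replicating inside host cells; inhibitors lower the luminescence signal.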 It counts as functional, cell-based.
Assay [8] can be described thus: cytotoxicity toward NIH3T3 fibroblasts, dose response, counter-screen, cell-based, ATP luminescence, mouse fibroblasts (AID 2010).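 Note: cells exposed to compound for about 90 hours before reading.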 It counts as functional.
Another assay deals with Streptococcus. Description: Group A Streptococcus viability loss, dose response, counter-screen for streptokinase expression inhibitor project, luminescence, BacTiterGlo (AID 1915).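 Note: potency for reduction of bacterial viability or growth.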 It counts as functional, organism-based.

Activity calls are given as the source filed them.

Chain of Cytochrome P450 2C9 (P11712 whole entry): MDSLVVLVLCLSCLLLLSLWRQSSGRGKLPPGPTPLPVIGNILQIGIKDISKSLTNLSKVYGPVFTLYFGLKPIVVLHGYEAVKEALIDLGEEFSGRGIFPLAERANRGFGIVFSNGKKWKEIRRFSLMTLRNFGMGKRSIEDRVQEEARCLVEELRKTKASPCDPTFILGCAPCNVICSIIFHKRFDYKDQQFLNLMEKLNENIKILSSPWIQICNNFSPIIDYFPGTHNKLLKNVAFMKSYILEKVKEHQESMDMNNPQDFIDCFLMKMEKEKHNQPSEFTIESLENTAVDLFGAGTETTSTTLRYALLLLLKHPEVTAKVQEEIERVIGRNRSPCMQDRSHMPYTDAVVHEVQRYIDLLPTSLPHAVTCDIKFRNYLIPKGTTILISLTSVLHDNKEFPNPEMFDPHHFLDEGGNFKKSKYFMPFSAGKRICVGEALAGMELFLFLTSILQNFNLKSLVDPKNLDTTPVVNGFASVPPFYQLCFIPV
Chain of Cytochrome P450 2C19 (P33261 whole entry): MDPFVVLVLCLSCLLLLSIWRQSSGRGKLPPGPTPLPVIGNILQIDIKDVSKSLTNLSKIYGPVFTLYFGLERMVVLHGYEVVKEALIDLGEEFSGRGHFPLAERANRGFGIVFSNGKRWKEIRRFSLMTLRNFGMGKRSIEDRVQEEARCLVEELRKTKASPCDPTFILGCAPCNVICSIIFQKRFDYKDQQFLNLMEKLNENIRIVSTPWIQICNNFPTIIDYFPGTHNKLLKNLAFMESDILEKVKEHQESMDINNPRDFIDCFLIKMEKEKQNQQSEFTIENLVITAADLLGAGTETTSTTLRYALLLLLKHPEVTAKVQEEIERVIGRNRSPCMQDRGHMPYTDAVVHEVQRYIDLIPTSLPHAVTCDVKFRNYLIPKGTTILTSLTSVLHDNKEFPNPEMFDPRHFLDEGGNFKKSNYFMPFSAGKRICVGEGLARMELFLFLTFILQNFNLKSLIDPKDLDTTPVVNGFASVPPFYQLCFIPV

One may read the EC50 as the midpoint of the concentration-response curve. Consider `Cc1ccc(NC(=O)CCOc2ccccc2)cc1`, for which the EC50 in assay [1] is 92.6 µM (active); with H4, > 120 µM (not active). On to `O=C(Nc1nccs1)c1ccc(-c2ccc([N+](=O)[O-])cc2)o1`, for which the concentration for a half-maximal effect (EC50) is 12.3 µM (inconclusive) in assay [2] and 6.66 µM (active) in [3]. One may read the AC50 as the midpoint of the concentration-response curve, whichever way the signal moves. For `CN/C(=N\c1ccc(C2=NNC(=O)C[C@@H]2C)cc1)NC#N`, on Cytochrome P450 1A2, the AC50 is 39.8 µM (inconclusive).

As usually defined, the IC50 is the concentration needed to halve the response being measured. As for `CCN(CC)c1ccc(NC(=O)CN2CCN(c3ccccn3)CC2)cc1`, in assay [4], the concentration at half-maximal activity (AC50) was 0.384 µM (active). Further, the IC50 in assay [5] is 131 µM (active). `CCNc1ncc2nc(-c3cn(C)c4ccccc34)c(=O)n(Cc3cccc(OC)c3)c2n1`: the AC50 at Cytochrome P450 1A2 was 12.6 µM (inconclusive).

As for `CCOc1cc2c(cc1/C=C(/C#N)c1ccc(C(=O)O)cc1)OCO2`, the concentration for a half-maximal effect (EC50) in assay [2] and in assay [3] was > 300 µM (not active) each time.

Consider `O=C(c1ccco1)N1CCC2(CCCN(C(c3ccccc3)c3ccccc3)C2)CC1`, for which the half-maximal activity concentration (AC50) at Cytochrome P450 2C19 was 39.8 µM (inconclusive); at Cytochrome P450 1A2 it was 15.8 µM (inconclusive). `CCc1ccc(CNc2ccc(N3CCN(C(C)=O)CC3)cc2)cc1`: the AC50 in assay [4] was 0.445 µM (active). Besides, the IC50 in assay [5] is 9.44 µM (active). Regarding `COC(=O)[C@H](Cc1ccccc1)NC(=O)N1CCN(c2ccccc2)CC1`, in assay [4], the concentration at half-maximal activity (AC50) is 6.26 µM (active). `CCOC(=O)c1c(NC(=O)CCC(=O)N2CCOCC2)sc2c1CC(C)(C)OC2`: the AC50 was 0.224 µM (inconclusive) on Cytochrome P450 2C19, 15.8 µM (inconclusive) on Cytochrome P450 1A2 and 0.00562 µM (inconclusive) on Cytochrome P450 2C9. With `Cn1cnc2cc(NCc3ccc(Cl)cc3)ccc21`, the AC50 in assay [4] is 5.49 µM (active). As for `COc1cc(C)cc2c(-c3c(O)cc(O)c4c3C[C@H](C)N[C@@H]4C)cc(-c3cc(-c4c(O)cc(O)c5c4C[C@H](C)N[C@@H]5C)c4cc(C)cc(OC)c4c3O)c(O)c12`, the AC50 at Cytochrome P450 2D6 is 5.01 µM (inconclusive); at Cytochrome P450 1A2 it was 0.2 µM (inconclusive). In the case of `COc1ccc(-c2nnn(CC(=O)N(CC(=O)NCCC(C)C)Cc3cccs3)n2)cc1OC`, the AC50 at Cytochrome P450 1A2 is 31.6 µM (inconclusive); on Cytochrome P450 2C9, 7.08 µM (inconclusive). Turning to `CC(NC(=O)c1ccc(N2CCCC2)c([N+](=O)[O-])c1)c1ccc(S(N)(=O)=O)cc1` (stereo not given), the AC50 in assay [4] was 3.51 µM (active). With `COc1ccc(Oc2ncc3ncc(=O)n(CCc4ccccc4)c3n2)cc1`, the half-maximal activity concentration (AC50) on Cytochrome P450 1A2 was 0.631 µM (inconclusive). For `COc1ccc(N2CCN(C(=O)Cc3cccs3)CC2)cc1`, in [4], the AC50 was 2.36 µM (active). `COc1ccc(C2(CNC(=O)/C=C/c3ccco3)CCCC2)cc1OC`: the AC50 is 22.4 µM (inconclusive) at Cytochrome P450 1A2 and 10 µM (inconclusive) on Cytochrome P450 2C9. On the same counts, the results for `Cc1cccc(NC(=O)c2cccc(N3C(=O)C4C5CCC(C5)C4C3=O)c2)c1C` (stereo not given) are 25.1 µM (inconclusive) and 22.4 µM (inconclusive). For the compound `CCC(C)Nc1nc2c(c(=O)n(C)c(=O)n2C)n1Cc1cccc(C)c1` (stereo not given), the half-maximal activity concentration (AC50) in assay [4] was 8.61 µM (active).

As for `O=C(CN1CCN(S(=O)(=O)c2ccc(F)cc2)CC1)Nc1ccc2c(c1)OCO2`, the half-maximal activity concentration (AC50) at Cytochrome P450 2C19 is 3.98 µM (inconclusive); at Cytochrome P450 2D6 it was 5.01 µM (inconclusive); at Cytochrome P450 1A2, 25.1 µM (inconclusive); at Cytochrome P450 2C9, 11.2 µM (inconclusive). For the compound `COc1cc(/C=N/NC(=O)c2cccc([N+](=O)[O-])c2)cc(OC)c1O`, in assay [4], the concentration at half-maximal activity (AC50) was 2.04 µM (active). Turning to `COc1cccc(N/N=C/c2cccc(Br)c2O)c1`, the EC50 in assay [6] is 12.5 µM (active); at Streptokinase A, 19.6 µM (active); in assay [7], 3.27 µM (active); in assay [8], > 60 µM (not active); with Streptococcus it was > 150 µM (not active). Also, the AC50 in assay [4] was 1.67 µM (active). For `Cc1ccc(-c2nc(N/N=C/c3ccccc3[N+](=O)[O-])c3ccccc3n2)cc1`, the EC50 with H4 is 0.595 µM (active). Consider `O=C(N/N=C/c1ccc2nccnc2c1)c1ccccc1O`, for which the results for the 50% effective concentration (EC50) (in assay [1]; in the assay with H4) were 48.8 µM (active) and 44.2 µM (active), respectively. Consider `COc1ccccc1N1CCN(C[C@@H](C(=O)NC(C)(C)C)c2ccccc2)CC1`, for which the concentration at half-maximal activity (AC50) on Cytochrome P450 2D6 was 20 µM (inconclusive); at Cytochrome P450 1A2, 0.631 µM (inconclusive). Regarding `N#CC1=C(N)n2c(s/c(=C\c3cccs3)c2=O)=C(C#N)C1c1cccs1` (stereo not given), the AC50 in assay [4] is 5.68 µM (active). As for `CN1CCc2cc(Cl)c(O)cc2[C@H](c2ccccc2)C1`, the AC50 on Cytochrome P450 1A2 was 31.6 µM (inconclusive).

On to `CCCCCCCC/C=C\CCCCCCCC(=O)NCc1ccc(O)c(OC)c1` [OLVANIL], for which the half-maximal activity concentration (AC50) on Cytochrome P450 1A2 was 20 µM (inconclusive).
